From ChEMBL document CHEMBL1909046, “DrugMatrix in vitro pharmacology data”
Where a SMILES comes first, the peptide text is derived from it. Bridges are numbered along the chain shown (N, C = ends). [ ]: non-standard residue; d: D form. The star is where a group is joined. Threoninol(2S,3R) = C[C@@H](O)[C@H](CO)N*

What was measured:
[1] = DRUGMATRIX: Sodium/nucleoside co-transporter radioligand binding (ligand: nitrobenzylthioinosine); assay type: cell membranes, Cavia porcellus, Dunkin-Hartley, Cerebral cortex, Membrane; details: Not Active = under 50% inhibition at 10 µM
[2] = DRUGMATRIX: Calcium Channel Type L, Phenylalkylamine radioligand binding (ligand: [3H] (-)-Desmethoxyverapamil (D-888)); assay type: cell membranes, Rattus norvegicus, Wistar, Brain, Membrane; details: Not Active = under 50% inhibition at 10 µM
[3] = DRUGMATRIX: GABAA, Muscimol, Central radioligand binding (ligand: [3H] Muscimol); assay type: cell membranes, Rattus norvegicus, Wistar, Brain, Membrane; details: Not Active = under 50% inhibition at 10 µM
[4] = biological target: T1, Nitric oxide synthase, inducible (Mus musculus, UniProt P29477); parameters: species or system Escherichia coli;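 also: inhibition of iNOS enzyme activity measured with L-arginine as substrate; in other assays of this panel Not Active means under 50% inhibition at 10 µM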
T1 sequence (P29477 whole entry): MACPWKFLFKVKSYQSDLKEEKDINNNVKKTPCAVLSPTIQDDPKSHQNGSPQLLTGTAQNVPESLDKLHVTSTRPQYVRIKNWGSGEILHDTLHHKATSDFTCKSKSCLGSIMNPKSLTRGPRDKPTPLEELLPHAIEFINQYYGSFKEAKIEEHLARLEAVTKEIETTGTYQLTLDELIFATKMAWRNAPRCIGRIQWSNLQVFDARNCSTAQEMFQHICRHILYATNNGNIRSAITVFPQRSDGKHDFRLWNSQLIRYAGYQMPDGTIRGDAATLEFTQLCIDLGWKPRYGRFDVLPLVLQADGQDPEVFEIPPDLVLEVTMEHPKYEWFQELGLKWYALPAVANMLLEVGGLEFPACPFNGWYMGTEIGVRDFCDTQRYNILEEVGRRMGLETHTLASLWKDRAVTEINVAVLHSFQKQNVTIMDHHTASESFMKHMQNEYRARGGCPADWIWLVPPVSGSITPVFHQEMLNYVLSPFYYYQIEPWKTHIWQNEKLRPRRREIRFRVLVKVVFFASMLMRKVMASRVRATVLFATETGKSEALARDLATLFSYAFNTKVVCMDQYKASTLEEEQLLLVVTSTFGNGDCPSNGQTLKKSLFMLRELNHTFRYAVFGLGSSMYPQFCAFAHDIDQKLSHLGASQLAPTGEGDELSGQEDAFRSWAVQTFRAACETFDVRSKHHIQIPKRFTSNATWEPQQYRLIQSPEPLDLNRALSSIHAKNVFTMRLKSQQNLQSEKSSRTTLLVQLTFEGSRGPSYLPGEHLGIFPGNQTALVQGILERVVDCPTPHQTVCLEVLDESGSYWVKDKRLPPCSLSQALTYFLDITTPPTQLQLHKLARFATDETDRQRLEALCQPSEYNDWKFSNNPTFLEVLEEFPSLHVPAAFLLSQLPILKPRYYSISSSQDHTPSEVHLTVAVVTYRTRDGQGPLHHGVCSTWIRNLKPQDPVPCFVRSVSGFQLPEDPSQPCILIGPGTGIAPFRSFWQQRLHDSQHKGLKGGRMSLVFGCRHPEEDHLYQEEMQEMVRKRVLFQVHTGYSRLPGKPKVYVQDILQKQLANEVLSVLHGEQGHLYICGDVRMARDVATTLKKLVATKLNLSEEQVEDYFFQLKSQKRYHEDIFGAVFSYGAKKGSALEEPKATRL

[5] = biological target: Kappa-type opioid receptor (Homo sapiens, UniProt P41145); assay: DRUGMATRIX: Opiate kappa (OP2, KOP) radioligand binding (ligand: [3H] Diprenorphine); assay type: cell membranes, HEK293, Membrane; details: hek293; Not Active = under 50% inhibition at 10 µM
[6] = DRUGMATRIX: Phorbol Ester radioligand binding (ligand: [3H] PDBu); assay type: cell membranes, Mus musculus, ICR, Brain, Membrane; details: Not Active = under 50% inhibition at 10 µM
[7] = biological target: Mitogen-activated protein kinase 3 (Homo sapiens, UniProt P27361); assay: DRUGMATRIX: Protein Serine/Threonine Kinase, ERK1 enzyme inhibition (substrate: Myelin Basic Protein); parameters: species or system Escherichia coli; details: Not Active = under 50% inhibition at 10 µM
[8] = biological target: T2, Receptor-type tyrosine-protein phosphatase C (Homo sapiens, UniProt P08575); parameters: species or system Escherichia coli;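 also: inhibition of CD45 enzyme activity measured using DiFMUP as substrate; in other assays of this panel Not Active means under 50% inhibition at 10 µM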
T2 sequence (P08575 whole entry): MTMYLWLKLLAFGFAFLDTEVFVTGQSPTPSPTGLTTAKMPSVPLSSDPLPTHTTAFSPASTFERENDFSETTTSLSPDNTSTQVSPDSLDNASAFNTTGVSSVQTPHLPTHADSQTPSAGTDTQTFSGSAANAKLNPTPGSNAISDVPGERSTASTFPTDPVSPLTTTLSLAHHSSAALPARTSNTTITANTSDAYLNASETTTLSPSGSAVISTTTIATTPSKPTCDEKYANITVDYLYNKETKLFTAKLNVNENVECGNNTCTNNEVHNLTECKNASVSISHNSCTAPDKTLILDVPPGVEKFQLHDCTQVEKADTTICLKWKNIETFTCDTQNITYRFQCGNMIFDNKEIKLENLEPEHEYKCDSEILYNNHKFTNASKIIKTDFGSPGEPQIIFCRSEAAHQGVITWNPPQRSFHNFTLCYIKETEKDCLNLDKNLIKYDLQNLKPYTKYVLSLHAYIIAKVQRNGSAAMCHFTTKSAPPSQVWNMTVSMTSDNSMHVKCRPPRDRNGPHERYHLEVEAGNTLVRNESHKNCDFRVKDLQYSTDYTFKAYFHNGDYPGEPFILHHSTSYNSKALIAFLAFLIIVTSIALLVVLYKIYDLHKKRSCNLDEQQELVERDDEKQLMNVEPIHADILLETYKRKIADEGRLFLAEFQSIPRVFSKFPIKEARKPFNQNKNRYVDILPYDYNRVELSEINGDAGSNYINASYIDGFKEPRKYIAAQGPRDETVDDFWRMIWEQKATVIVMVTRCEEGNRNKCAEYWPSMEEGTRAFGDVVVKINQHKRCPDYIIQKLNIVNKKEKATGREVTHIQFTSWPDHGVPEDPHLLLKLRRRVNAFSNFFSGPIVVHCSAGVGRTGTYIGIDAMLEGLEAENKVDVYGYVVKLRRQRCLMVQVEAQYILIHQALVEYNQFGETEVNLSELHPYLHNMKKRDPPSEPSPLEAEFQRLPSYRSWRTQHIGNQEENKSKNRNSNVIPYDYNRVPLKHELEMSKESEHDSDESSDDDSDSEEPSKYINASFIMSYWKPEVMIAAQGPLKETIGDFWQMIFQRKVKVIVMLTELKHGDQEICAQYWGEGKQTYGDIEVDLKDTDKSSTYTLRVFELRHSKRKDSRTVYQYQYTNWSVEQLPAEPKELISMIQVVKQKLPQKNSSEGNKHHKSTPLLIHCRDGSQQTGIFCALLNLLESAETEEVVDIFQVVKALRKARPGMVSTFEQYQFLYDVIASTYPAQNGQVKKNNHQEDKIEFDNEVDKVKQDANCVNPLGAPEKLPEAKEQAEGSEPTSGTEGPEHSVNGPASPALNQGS

Chain of Mitogen-activated protein kinase 3 (P27361 whole entry): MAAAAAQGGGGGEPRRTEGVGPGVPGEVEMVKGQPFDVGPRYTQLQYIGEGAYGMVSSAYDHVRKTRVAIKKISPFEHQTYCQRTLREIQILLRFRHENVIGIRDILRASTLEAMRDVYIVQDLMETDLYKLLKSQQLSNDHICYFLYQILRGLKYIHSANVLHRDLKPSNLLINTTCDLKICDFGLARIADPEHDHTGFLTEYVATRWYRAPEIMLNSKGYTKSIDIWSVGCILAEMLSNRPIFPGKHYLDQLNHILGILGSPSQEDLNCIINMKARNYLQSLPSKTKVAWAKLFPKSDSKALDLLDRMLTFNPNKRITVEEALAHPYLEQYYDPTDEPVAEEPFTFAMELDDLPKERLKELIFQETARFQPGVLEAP
Chain of Kappa-type opioid receptor (P41145 whole entry): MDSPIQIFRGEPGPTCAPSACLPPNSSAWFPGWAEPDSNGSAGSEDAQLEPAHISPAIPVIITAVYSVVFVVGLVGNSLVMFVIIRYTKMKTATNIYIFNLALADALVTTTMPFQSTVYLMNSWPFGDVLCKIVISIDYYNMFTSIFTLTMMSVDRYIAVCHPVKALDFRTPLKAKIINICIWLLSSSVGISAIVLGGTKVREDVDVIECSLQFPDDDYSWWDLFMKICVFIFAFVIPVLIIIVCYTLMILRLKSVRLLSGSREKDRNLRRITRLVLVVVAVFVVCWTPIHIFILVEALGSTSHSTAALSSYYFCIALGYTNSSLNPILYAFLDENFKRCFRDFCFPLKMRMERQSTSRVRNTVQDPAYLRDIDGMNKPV

COc1ccccc1C(=O)N1CCC(Cc2ccccc2)CC1
Not Active: IC50 [1] | Ki [1] | IC50 [2] | Ki [2] | IC50 [3] | Ki [3] | IC50 [4] | IC50 [5] | IC50 [6] | Ki [6] | IC50 [7] | IC50 [8]

Cc1ccccc1C(=O)N1CCC(Cc2ccccc2)CC1
Not Active: IC50 [1] | Ki [1] | IC50 [2] | Ki [2] | IC50 [3] | Ki [3] | IC50 [4] | IC50 [5] | IC50 [6] | Ki [6] | IC50 [7] | IC50 [8]

O=C1CC[C@H](N2C(=O)c3ccccc3C2=O)C(=O)N1
Not Active: IC50 [1] | Ki [1] | IC50 [2] | Ki [2] | IC50 [3] | Ki [3] | IC50 [4] | IC50 [5] | IC50 [6] | Ki [6] | IC50 [7] | IC50 [8]

N=C(Nc1ccccc1)Nc1ccccc1
Not Active: IC50 [1] | Ki [1] | IC50 [2] | Ki [2] | IC50 [3] | Ki [3] | IC50 [4] | IC50 [5] | IC50 [6] | Ki [6] | IC50 [7] | IC50 [8]

C[C@@H](O)[C@H](CO)NC(=O)[C@@H]1CSSC[C@H](NC(=O)[C@H](N)Cc2ccccc2)C(=O)N[C@@H](Cc2ccccc2)C(=O)N[C@H](Cc2c[nH]c3ccccc23)C(=O)N[C@@H](CCCCN)C(=O)N[C@@H]([C@@H](C)O)C(=O)N1 (H-[dF]CF[dW]KTC-{Threoninol(2S,3R)}; disulfide 2-7)
Not Active: IC50 [1] | Ki [1] | IC50 [2] | Ki [2] | IC50 [3] | Ki [3] | IC50 [4] | IC50 [5] | IC50 [6] | Ki [6] | IC50 [7] | IC50 [8]

S=C=Nc1cccc2ccccc12 [1-NAPHTHYLISOTHIOCYANATE]
Not Active: IC50 [1] | Ki [1] | IC50 [2] | Ki [2] | IC50 [3] | Ki [3] | IC50 [4] | IC50 [6] | Ki [6] | IC50 [7] | IC50 [8]

CC(=O)Nc1ccc(O)cc1 [ACETAMINOPHEN]
Not Active: IC50 [1] | Ki [1] | IC50 [2] | Ki [2] | IC50 [3] | Ki [3] | IC50 [4] | IC50 [6] | Ki [6] | IC50 [7] | IC50 [8]

C[C@@]12C(=O)OC(=O)[C@]1(C)[C@H]1CC[C@@H]2O1 [CANTHARIDIN]
Not Active: IC50 [1] | Ki [1] | IC50 [2] | Ki [2] | IC50 [3] | Ki [3] | IC50 [4] | IC50 [6] | Ki [6] | IC50 [7] | IC50 [8]

C[C@@H]1C[C@@H]([C@H](O)CC2CC(=O)NC(=O)C2)C(=O)[C@@H](C)C1 [CYCLOHEXIMIDE]
Not Active: IC50 [1] | Ki [1] | IC50 [2] | Ki [2] | IC50 [3] | Ki [3] | IC50 [4] | IC50 [6] | Ki [6] | IC50 [7] | IC50 [8]

COP(=O)(OC)OC=C(Cl)Cl [DICHLORVOS]
Not Active: IC50 [1] | Ki [1] | IC50 [2] | Ki [2] | IC50 [3] | Ki [3] | IC50 [4] | IC50 [6] | Ki [6] | IC50 [7] | IC50 [8]

CADMIUM DICHLORIDE
Not Active: IC50 [1] | Ki [1] | IC50 [2] | Ki [2] | IC50 [3] | Ki [3] | IC50 [4] | Ki [4] | IC50 [6] | Ki [6] | IC50 [7] | Ki [7] | IC50 [8] | Ki [8]
